Patent publication US7378384B2, “WT1 substitution peptides” (International Institute of Cancer Immunology, Inc., priority 2002, dated 2008)
“Also recorded” adds a separate entry of the source. Non-standard residues stand in square brackets, D forms with d. No end group written: not given here. Cit = NC(=O)NCCC[C@H](N)C(=O)O; Orn = NCCC[C@H](N)C(=O)O; Abu = CC[C@H](N)C(=O)O

Assays:
[1] = system: HLA-A2402/K^b transgenic mice; assay: In vivo immunogenicity (CTL-inducing activity): immunization of HLA-A2402/K^b transgenic mice, 51Cr release assay of in vitro restimulated splenocytes; set-up: species or system mouse
Protocol: In vivo immunogenicity of each antigen peptide was evaluated using the HLA-A2402/K^b transgenic mice. The preparation of the transgenic mice and the determination of in vivo immunogenicity were conducted according to WO 02/47474, and Int J. Cancer. 100, 565-570 (2002) that describe them in detail.
The non-substituted type peptide and the substituted type peptides as described above were synthesized using Fmoc method. The peptides synthesized were each adjusted to 40 mg/ml in DMSO, and each diluted with a sterilized water to 2.4 mg/ml. They were then mixed with a 1.27 parts of Freund's incomplete adjuvant (ISA51) using a glass syringe to prepare a water-in-oil emulsion. The resultant emulsion (200 μl) was injected into the HLA-A2402/K^b transgenic mouse subcutaneously in the base of the tail for immunization.
Seven days after the immunization, the spleen was removed and grounded on the frosted part of glass slide, and splenocytes were recovered and prepared. A portion of the splenocytes undergone hemolysis treatment with an ACK buffer (0.15 M NH4Cl, 10 mM KHCO3, 0.1 mM EDTA, pH 7.2-7.4) was pulsed with the above-mentioned peptide compositions at 100 μg/ml for 1 hour, and seeded into a 24-well plate at 7×10^5/well. Simultaneously, splenocytes not pulsed with any peptide (7×10^6/well) were added together, and stimulated in vitro and incubated at 37° C. for 5 to 6 days. The in vitro stimulation was carried out in RPMI1640 medium supplemented with 10% FCS, 10 mM HEPES, 20 mM L-glutamine, 1 mM sodium pyruvate, 1 mM MEM nonessential amino acids, 1% MEM vitamin and 55 μM 2-mercaptoethanol.
The test for cytotoxic activity was conducted according to the conventional manner. EL4-A2402/K^b cells obtained by transforming EL-4 cells (DAINIPPON PHARMACEUTICAL CO., LTD., Catalogue No. 06-039) with an expression vector encoding HLA-A2402/K^b, and the EL4-A2402/K^b cells pulsed with peptide A, B, C, D, E, or F were used as target cells (T). The EL4-A2402/K^b cells were prepared in a similar manner to the preparation of Jurkat-A2402/K^b cells described in WO 02/47474.
These cells were labeled with ^51Cr (3.7 MBq/10^6 cells) and pulsed with the peptide at 100 μg/ ml for an hour (The labeling was carried out over 2 hours, and 1 hour after the initiation of labeling, the peptide was added). Splenocytes in vitro stimulated and incubated were used as effector cells (E). They were combined with the target cells at various ratios, and ^51Cr release assay (J. Immunol., 1997; 159: 4753) was conducted to determine the cytotoxic activity of the effector cells. […]
The substituted type peptides were synthesized using Fmoc method. The peptides synthesized were each adjusted to 40 mg/ml in DMSO, and each diluted with a physiological saline to 2.4 mg/ml. They were then mixed with a 1.27 parts of Freund's incomplete adjuvant (ISA51) using a glass syringe to prepare a water-in-oil emulsion. The resultant emulsion (200 μl) was injected into the HLA-A2402/K^b transgenic mouse subcutaneously in the base of the tail for immunization.
The test for cytotoxic activity was conducted according to the conventional manner. EL4-A2402/K^b cells obtained by transforming EL-4 cells with an expression vector encoding HLA-A2402/K^b, and the EL4-A2402/K^b cells pulsed with peptide K, L, or M were used as target cells (T).
These cells were labeled with ^51Cr (3.7 MBq/10^6 cells) and pulsed with the peptide at 100 μg/ml for an hour (The labeling was carried out over 2 hours, and 1 hour after the initiation of labeling, the peptide was added). Splenocytes in vitro stimulated and incubated were used as effector cells (E). They were combined with the target cells at various ratios, and ^51Cr release assay (J. Immunol., 1997; 159: 4753) was conducted to determine the cytotoxic activity of the effector cells.

[2] = system: CTLs; conditions: Clin. Cancer. Res. 8: 2626, 2002, and WO 00/06602; cited from earlier work
[3] = system: HLA-A24 antigen; conditions: compared with the natural type peptide WT1235-243; cited from earlier work
[4] = Example 1, s.c. immunization with peptide in ISA51 water-in-oil emulsion, splenocytes 7 days after, target EL4-A2402/K^b cells pulsed with the peptide at 100 μg/ml vs not pulsed
[5] = Example 3, peptide with KLH in ISA51 emulsion s.c., target EL4-A2402/K^b cells pulsed with the peptide at 20 μg/ml vs not pulsed
[6] = Example 4, peptide in saline/ISA51 emulsion s.c., target EL4-A2402/K^b cells pulsed with the peptide at 100 μg/ml vs not pulsed

For AMTWNQMNL [peptide H], the “immunogenicity (activity to induce CTLs); cytotoxic activity (% Specific Lysis) vs E/T ratio” value (from here on “immunogenicity … (% Specific Lysis) vs E/T ratio”) ([1]; Example 3, peptide with KLH in ISA51 emulsion s.c., target Jurkat-A2402/K^b cells pulsed with the peptide at 20 μg/ml vs not pulsed) was “have an immunogenicity (an activity to induce CTLs); also recorded: specific CTLs were induced”.

For AYTWNQMNL [peptide C], the “immunogenicity … (% Specific Lysis) vs E/T ratio” value [1, 4] was “specific CTLs were induced”.

For “Abu-Tyr-Thr-Trp-Asn-Gln-Met-Asn-Leu ([Abu]YTWNQMNL) [peptide D]”, the “immunogenicity … (% Specific Lysis) vs E/T ratio” value [1, 4] was “specific CTLs were induced”.

In the case of CMTWNQMNL [WT1235-243], the “activity to induce CTLs in HLA-A24-restricted manner” value [2] is listed as “having an activity to induce CTLs in HLA-A24-restricted manner”.

In the case of “CYTWNQMNL [peptide A, reference compound]”, the “immunogenicity … (% Specific Lysis) vs E/T ratio” value [1, 4] is listed as “specific CTLs were induced” and the “binding activity to the HLA-A24 antigen” value [3] is listed as “higher binding activity to the HLA-A24 antigen than the natural type peptide”.

For “Cit Tyr Thr Trp Asn Gln Met Asn Leu ([Cit]YTWNQMNL) [peptide J]”, the “immunogenicity … (% Specific Lysis) vs E/T ratio” value [1, 5] was “have an immunogenicity (an activity to induce CTLs); also recorded: specific CTLs were induced”.

With FYTWNQMNL [peptide L] the “immunogenicity … (% Specific Lysis) vs E/T ratio” value [1, 6] was “have an immunogenicity (an activity to induce CTLs); also recorded: specific CTLs were induced”.

In the case of KYTWNQMNL [peptide F], the “immunogenicity … (% Specific Lysis) vs E/T ratio” value [1, 4] is reported as “specific CTLs were induced”.

In the case of LYTWNQMNL [peptide K], the “immunogenicity … (% Specific Lysis) vs E/T ratio” value [1, 6] is reported as “have an immunogenicity (an activity to induce CTLs); also recorded: specific CTLs were induced”.

With NYTWNQMNL [peptide M] the “immunogenicity … (% Specific Lysis) vs E/T ratio” value [1, 6] was “have an immunogenicity (an activity to induce CTLs); also recorded: specific CTLs were induced”.

With “Orn Tyr Thr Trp Asn Gln Met Asn Leu ([Orn]YTWNQMNL) [peptide I]” the “immunogenicity … (% Specific Lysis) vs E/T ratio” value [1, 5] was “have an immunogenicity (an activity to induce CTLs); also recorded: specific CTLs were induced”.

With RYTWNQMNL [peptide E] the “immunogenicity … (% Specific Lysis) vs E/T ratio” value [1, 4] was “specific CTLs were induced”.

For SMTWNQMNL [peptide G], the “immunogenicity … (% Specific Lysis) vs E/T ratio” value [1, 5] was “have an immunogenicity (an activity to induce CTLs); also recorded: specific CTLs were induced”.

With SYTWNQMNL [peptide B] the “immunogenicity … (% Specific Lysis) vs E/T ratio” value [1, 4] was “specific CTLs were induced”.
